# Results reported in ChEMBL document CHEMBL1201862, “PubChem BioAssay data set” (2004).
# Calls of active or inactive are those of the source.
# Experiments:
# [1] = biological target: Delta-type opioid receptor (Homo sapiens, UniProt P41143); test: Counterscreen for agonists of heterodimerization of the mu 1 (OPRM1) and delta 1 (OPRD1) opioid receptors: Luminescence-based cell-based high throughput dose response assay to identify agonists of OPRD1 homodimerization. [Related pubchem assays (depositor defined):AID504326, AID504355, AID504692, AID504904, AID504905]; type: functional
# [2] = biological target: 5-hydroxytryptamine receptor 5A (Homo sapiens, UniProt P47898); test: Counterscreen for agonists of OPRM1-OPRD1 heterodimerization: luminescence-based cell-based high throughput dose response assay to identify agonists of 5-hydroxytryptamine (serotonin) 5A receptor (HTR5A). [Related pubchem assays (depositor defined):AID504326, AID504355, AID504692, AID504904, AID504905]; type: functional
# Mu-type opioid receptor = Mu-type opioid receptor (Homo sapiens, UniProt P35372); test: Counterscreen for agonists of heterodimerization of the mu 1 (OPRM1) and delta 1 (OPRD1) opioid receptors: Luminescence-based cell-based high throughput dose response assay to identify agonists of OPRM1 homodimerization.; type: functional;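 further: U2OS cells expressing OPRM1 and beta-arrestin as split beta-galactosidase partners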
# [3] = biological target: T1, Ubiquitin-conjugating enzyme E2 N (Homo sapiens, UniProt P61088); type: functional
# T1 sequence (P61088 whole entry): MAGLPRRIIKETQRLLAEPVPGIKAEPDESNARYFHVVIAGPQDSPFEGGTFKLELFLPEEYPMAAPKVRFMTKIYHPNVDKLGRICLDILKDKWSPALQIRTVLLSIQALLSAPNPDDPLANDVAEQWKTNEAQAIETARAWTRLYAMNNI
# [4] = biological target: T2, Apoptotic protease-activating factor 1 (Homo sapiens, UniProt O14727); type: functional
# T2 sequence (O14727 whole entry): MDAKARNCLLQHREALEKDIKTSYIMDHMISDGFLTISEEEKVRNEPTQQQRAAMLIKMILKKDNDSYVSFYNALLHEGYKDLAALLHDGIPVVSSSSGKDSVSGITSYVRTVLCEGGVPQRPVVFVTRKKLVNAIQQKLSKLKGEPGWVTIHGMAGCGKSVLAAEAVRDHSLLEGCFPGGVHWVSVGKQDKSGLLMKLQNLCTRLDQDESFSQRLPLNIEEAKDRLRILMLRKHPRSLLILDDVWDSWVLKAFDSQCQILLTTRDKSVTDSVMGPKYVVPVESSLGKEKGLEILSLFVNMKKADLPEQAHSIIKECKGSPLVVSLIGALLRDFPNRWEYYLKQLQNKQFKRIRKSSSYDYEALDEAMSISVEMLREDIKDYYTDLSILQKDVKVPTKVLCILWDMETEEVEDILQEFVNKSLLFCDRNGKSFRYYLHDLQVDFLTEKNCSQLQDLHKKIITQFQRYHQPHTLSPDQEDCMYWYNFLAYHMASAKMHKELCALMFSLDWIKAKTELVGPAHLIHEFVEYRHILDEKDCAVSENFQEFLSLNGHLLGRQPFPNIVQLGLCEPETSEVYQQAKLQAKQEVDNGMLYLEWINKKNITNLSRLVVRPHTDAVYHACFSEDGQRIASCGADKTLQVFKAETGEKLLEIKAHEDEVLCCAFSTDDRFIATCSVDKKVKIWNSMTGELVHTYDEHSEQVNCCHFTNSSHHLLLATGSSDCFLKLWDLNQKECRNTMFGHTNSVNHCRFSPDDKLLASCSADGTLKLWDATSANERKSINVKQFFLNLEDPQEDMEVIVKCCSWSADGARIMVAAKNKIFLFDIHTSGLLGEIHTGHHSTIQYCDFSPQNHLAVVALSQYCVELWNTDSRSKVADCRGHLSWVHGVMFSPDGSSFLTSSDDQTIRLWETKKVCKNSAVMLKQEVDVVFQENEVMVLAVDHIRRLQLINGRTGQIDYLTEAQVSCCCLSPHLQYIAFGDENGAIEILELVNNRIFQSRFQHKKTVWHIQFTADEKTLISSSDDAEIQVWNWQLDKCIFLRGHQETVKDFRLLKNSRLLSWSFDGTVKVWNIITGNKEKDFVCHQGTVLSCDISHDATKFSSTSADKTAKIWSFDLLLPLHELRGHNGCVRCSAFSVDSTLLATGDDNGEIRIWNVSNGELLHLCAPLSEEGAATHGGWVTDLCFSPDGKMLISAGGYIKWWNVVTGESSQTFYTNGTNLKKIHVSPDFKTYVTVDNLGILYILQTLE
# [5] = biological target: T1, Ubiquitin-conjugating enzyme E2 N; type: functional; remark: listed apart in the source
# Bcl-2-related protein A1 = biological target: T3, Bcl-2-related protein A1 (Mus musculus, UniProt Q07440); type: functional;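 further: confirmatory dose–response counterscreen on Bfl-1, used to check hits from a UBC13 polyubiquitin inhibitor campaign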
# T3 sequence (Q07440 whole entry): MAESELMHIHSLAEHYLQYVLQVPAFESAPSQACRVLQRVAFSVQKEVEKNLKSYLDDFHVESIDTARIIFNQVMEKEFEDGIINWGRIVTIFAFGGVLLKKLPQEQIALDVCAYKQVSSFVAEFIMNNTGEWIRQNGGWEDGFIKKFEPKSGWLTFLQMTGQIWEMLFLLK
# Escherichia coli [6] = test: microbe, parasite or virus in culture
# Vero [7] = test: cells; type: functional, cell-based; settings: Chlorocebus sabaeus
# Genome polyprotein = Genome polyprotein (dengue virus type 2, UniProt P29990); test: flavivirus cap methylation enzyme inhibition – biochemical, confirmation dose response, primary screen (AID 588689); type: functional
# Vero [8] = test: viability of Vero cells under compound – cytotoxicity control for flavivirus capping enzyme inhibitors (AID 588742); type: functional; settings: Chlorocebus sabaeus
# HEK293 [9] = test: cells; type: functional, cell-based; settings: Homo sapiens
# HEK293 [10] = test: inhibition of NOD1-driven NF-kB reporter – cell-based, luminescence, uHTS, primary screen (AID 1578); type: functional; settings: Homo sapiens
# HEK293 [11] = test: cells; type: functional, cell-based; settings: Homo sapiens; remark: listed apart in the source
# HEK293 [12] = test: NOD2 signaling inhibitors in MDP-stimulated cells, cell-based, uHTS, luminescence (AID 2001); type: functional; settings: Homo sapiens
# [13] = biological target: Photoreceptor-specific nuclear receptor (Homo sapiens, UniProt Q9Y5X4); type: functional, cell-based;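 further: CHO-S cells with Gal4-NCOR and VP16-NR2E3 two-hybrid luciferase reporter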
# Escherichia coli [14] = test: microbe, parasite or virus in culture; remark: listed apart in the source
# [15] = Luminescence Cell-Based Dose Retest to Confirm Inhibitors of Cancer Stem Cells. [Related pubchem assays (depositor defined):AID2717, AID2721]; type: functional; settings: Homo sapiens
# [16] = viability loss of HMLE_sh_eGFP cells – cell-based, luminescence, counter-screen for HMLE_sh_ECad selective toxicity project, dose response (AID 463074); type: functional, Homo sapiens;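 further: HMLE human mammary epithelial cells expressing control shRNA against eGFP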
# Chain of Photoreceptor-specific nuclear receptor (Q9Y5X4 whole entry, the tested form may be a part): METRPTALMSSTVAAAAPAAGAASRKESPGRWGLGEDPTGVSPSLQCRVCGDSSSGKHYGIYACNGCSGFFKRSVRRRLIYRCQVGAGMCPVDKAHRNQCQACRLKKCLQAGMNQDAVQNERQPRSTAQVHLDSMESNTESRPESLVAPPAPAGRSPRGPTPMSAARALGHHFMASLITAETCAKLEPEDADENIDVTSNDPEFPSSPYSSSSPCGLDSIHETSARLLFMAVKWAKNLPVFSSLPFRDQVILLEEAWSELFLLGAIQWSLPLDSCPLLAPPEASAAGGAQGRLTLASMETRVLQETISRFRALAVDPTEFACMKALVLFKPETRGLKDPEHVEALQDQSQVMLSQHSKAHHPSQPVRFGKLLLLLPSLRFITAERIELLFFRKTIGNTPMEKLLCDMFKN
# Chain of Mu-type opioid receptor (P35372 whole entry): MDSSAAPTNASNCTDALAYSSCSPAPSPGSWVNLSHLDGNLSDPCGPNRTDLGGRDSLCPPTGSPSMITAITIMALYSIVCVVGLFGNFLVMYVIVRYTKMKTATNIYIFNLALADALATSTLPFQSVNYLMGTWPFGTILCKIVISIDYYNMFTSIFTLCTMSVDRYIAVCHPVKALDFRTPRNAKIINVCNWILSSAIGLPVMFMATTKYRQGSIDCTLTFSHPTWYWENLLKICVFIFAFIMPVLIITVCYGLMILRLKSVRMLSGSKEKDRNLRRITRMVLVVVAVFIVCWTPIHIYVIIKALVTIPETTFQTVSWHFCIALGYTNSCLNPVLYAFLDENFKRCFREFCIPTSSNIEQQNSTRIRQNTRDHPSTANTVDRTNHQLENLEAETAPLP
# Chain of Delta-type opioid receptor (P41143 whole entry): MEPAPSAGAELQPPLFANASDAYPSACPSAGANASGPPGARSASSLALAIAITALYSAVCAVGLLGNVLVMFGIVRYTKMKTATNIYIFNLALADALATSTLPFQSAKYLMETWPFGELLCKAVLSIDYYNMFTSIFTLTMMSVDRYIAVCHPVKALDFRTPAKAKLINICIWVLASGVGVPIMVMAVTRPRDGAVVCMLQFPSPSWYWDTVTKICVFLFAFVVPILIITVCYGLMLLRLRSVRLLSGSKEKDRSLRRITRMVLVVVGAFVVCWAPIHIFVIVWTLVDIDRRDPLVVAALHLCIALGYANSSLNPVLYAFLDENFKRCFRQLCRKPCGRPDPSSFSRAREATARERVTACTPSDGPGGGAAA
# Chain of Genome polyprotein (P29990 2492-3391 limits assumed): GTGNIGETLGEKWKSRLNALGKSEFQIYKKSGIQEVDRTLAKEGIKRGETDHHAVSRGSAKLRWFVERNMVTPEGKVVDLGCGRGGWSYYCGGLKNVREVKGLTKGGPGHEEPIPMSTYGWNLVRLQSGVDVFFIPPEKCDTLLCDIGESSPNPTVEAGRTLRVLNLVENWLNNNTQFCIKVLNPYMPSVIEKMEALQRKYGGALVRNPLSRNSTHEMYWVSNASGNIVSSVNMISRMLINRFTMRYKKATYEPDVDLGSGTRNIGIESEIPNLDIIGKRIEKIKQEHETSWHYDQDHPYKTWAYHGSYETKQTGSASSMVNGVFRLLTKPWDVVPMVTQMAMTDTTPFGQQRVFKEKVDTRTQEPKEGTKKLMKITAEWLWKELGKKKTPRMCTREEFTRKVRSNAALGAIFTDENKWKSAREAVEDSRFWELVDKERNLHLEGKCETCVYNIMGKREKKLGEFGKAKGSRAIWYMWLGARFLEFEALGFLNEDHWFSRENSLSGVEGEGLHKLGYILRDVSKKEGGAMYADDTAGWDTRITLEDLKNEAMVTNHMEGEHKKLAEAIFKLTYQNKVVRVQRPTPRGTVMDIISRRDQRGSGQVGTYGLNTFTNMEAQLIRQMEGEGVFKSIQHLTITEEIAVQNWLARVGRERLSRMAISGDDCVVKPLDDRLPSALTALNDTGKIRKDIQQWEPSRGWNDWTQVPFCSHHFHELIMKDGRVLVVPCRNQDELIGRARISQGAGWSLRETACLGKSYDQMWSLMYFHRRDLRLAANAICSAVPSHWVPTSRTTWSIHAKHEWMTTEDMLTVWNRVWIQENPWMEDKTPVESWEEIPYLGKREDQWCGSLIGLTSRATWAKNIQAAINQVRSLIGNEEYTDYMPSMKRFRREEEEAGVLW
# Chain of 5-hydroxytryptamine receptor 5A (P47898 whole entry): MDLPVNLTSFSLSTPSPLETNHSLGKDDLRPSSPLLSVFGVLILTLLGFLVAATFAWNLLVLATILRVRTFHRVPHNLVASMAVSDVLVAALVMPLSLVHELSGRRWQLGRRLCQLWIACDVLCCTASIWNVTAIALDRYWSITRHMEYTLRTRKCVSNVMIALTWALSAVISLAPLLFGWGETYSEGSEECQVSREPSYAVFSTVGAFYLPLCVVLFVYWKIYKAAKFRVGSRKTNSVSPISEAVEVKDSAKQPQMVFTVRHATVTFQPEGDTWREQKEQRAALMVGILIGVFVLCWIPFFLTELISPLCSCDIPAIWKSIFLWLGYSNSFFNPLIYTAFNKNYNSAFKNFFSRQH
compound,measurement,setting,value
COc1ccc(C2CC(c3ccc(OC)cc3)n3nc(NC(=O)c4cccs4)nc3N2)cc1 (stereo not given),EC50,[1],> 92.5 µM (inactive)
same,EC50,[2],> 92.5 µM (inactive)
same,EC50,Mu-type opioid receptor,> 92.5 µM (inactive)
COc1ccc(C(CNC(=O)c2ccc(S(=O)(=O)Nc3ccccc3F)cc2)N(C)C)cc1 (stereo not given),IC50,[3],6.59 µM (active)
same,IC50,[4],> 100 µM (inactive)
same,IC50,[5],4.54 µM (active)
same,IC50,Bcl-2-related protein A1,> 20 µM (inactive)
O=C(C[C@H]1C[C@H](C(=O)N2CCOCC2)[C@@]2(CCC3CCCC3)c3[nH]c4cc(-c5ccco5)ccc4c3CCN2C1=O)NCCCn1ccnc1,AC50,Escherichia coli [6],59.9 µM (active)
CCOC(=O)c1c(-c2cccc3ccccc23)csc1NC(=O)C1C2CCC(O2)C1C(=O)O (stereo not given),IC50,Vero [7],> 25 µM (active)
CC(C)c1ccc(-c2csc(NC(=O)c3cccs3)c2C(=O)O)cc1,IC50,Genome polyprotein,39.9 µM (active)
same,CC50,Vero [8],> 40 µM (active)
same,IC50,HEK293 [9],> 20 µM (inactive)
same,EC50,HEK293 [10],8.7 µM (active)
same,IC50,HEK293 [11],> 20 µM (inactive)
same,IC50,HEK293 [12],9.22 µM (active)
same,IC50,[13],6.83 µM (active)
CCCCN(C)CCn1c(=S)[nH]c2ncccc2c1=O,AC50,Escherichia coli [14],29.7 µM (active)
Cc1ccc(Cn2nc(C)c(NC(=O)c3cc(C)no3)c2C)cc1,AC50,Escherichia coli [6],> 380 µM (inactive)
O=C(NCCc1ccc(Cl)cc1Cl)c1cc([N+](=O)[O-])cnc1O,AC50,[15],4.14 µM (active)
same,AC50,[16],61.9 µM (active)
